Here are results for three compounds from patent publication US11883447B2, “Methods and probiotic compositions for the treatment of metabolic diseases and disorders” (Research Development Foundation, priority 2019, dated 2024).

Experiment [1] deals with ovariectomized mice. Nature of the experiment: Oral glucose tolerance test (OGTT) in ovariectomized mice gavaged with bacteria. The experiment is classed as in vivo. The settings on record: oral gavage every second day. How it is done:
(§1) Ovariectomy: Mice were anesthetised with Xylazin/Ketamin (injection of 120 μl of a mixture of 120 mg/kg ketamine and 16 mg/kg xylazine) and shaved below the ribs on the back side. Betadine was applied to the area for appropriate disinfection. After a 1-2 cm incision through the skin and the muscle layer just below the ribs, the ovary was localized, the fallopian tube ligated with dissolving suture and the ovary removed. The muscle layer was sutured with dissolving suture, the wound closed with staples and disinfected. The same procedure was performed on the other side. A dose of Tamgesic was administered 4 hours after the surgery, and the staples were removed 7 days after the surgery under isoflurane anaesthesia. The sham-operated animals underwent the same procedure, without ligating the fallopian tube and the ovary excision.
(§2) Single microbe transplantation: Lactobacillus Gasseri (DSM 20604) and Parabacteroides Goldsteinii (DSM 19948) were purchased from DSMZ. Lactobacillus reuteri (PTA-6475) and Akkermansia Muciniphila (BAA835) was purchased from ATCC. […]
(§3) Metabolic Experiments: Oral glucose tolerance tests (OGTT) were performed after 10 hr overnight fasting by oral gavage of glucose bolus ([…] body weight). […] Insulin level during the OGTT was measured with the Mouse Insulin ELISA kit (ref. 10-1247-01, Mercodia), following the manufacturer's instructions.

Experiment [2] has as its system ovariectomized mice. Nature of the experiment: Insulin tolerance test in ovariectomized mice gavaged with bacteria. Type of experiment: in vivo. Conditions: 0.5 U/kg insulin, glycemia over 2 h. On the procedure: as §1, §2, §3
For experiment [3], the system named is Lactobacillus Gaseri. Nature of the experiment: Bacterial growth in media supplemented with polyamines. Type of experiment: cell-based. The settings on record: in vitro, various concentrations in growth media. An excerpt:
(§4) The inventors next investigated whether culturing several bacteria with beneficial metabolic effects can be affected by presence of polyamines in the growth media. […] To further address whether the general growth of bacteria present in fresh fecal samples is affected, we inoculated fresh mouse fecal content in a growth media supplemented with various concentrations of spermine or spermidine.

For experiment [4], the system named is Lactobacillus Reuteri. The description is as above. The experiment is classed as cell-based. Conditions: in vitro, various concentrations in growth media.
Source text: as §4

Experiment [5] relates to Parabacteroides goldsteinii. The experiment is described as above. Type of experiment: cell-based. Conditions: in vitro, various concentrations in growth media.
Source text: as §4

The subject of experiment [6] is bacterial mix from mouse fecal samples. As to the kind of experiment: Growth of bacterial mix from fresh mouse fecal content in media with polyamines. Type of experiment: cell-based. Conditions: in vitro, various concentrations; exponential growth phase.
Source text: as §4

In the case of Lactobacillus Reuteri, the Oral glucose tolerance entry in experiment [1] is “improved”. Also, in experiment [2], the “Insulin sensitivity (insulin tolerance test)” value is recorded as “improved”.

Regarding `NCCCNCCCCNCCCN` [spermine, N, N′-bis (3-aminopropyl)-1,4-butane diamine], the “Growth of Lactobacillus Gaseri” value in experiment [3] is recorded as “increased the growth”. Moreover, in experiment [4], the “Growth of Lactobacillus Reuteri” value is listed as “increased the growth”. In addition, in experiment [5], the “Growth of Parabacteroides goldsteinii” value is on record as “increased the growth”. Also, the “Optical density of fecal bacterial mix” value in experiment [6] is listed as “increased the optical density during the exponential growth phase”.

As to `NCCCCNCCCN` [spermidine], the “Growth of Lactobacillus Gaseri” value in experiment [3] is recorded as “increased the growth”. In addition, the “Growth of Lactobacillus Reuteri” value in experiment [4] is given as “increased the growth”. Besides, in experiment [5], the “Growth of Parabacteroides goldsteinii” value was “increased the growth”. The “Optical density of fecal bacterial mix” value in experiment [6] is on record as “increased the optical density during the exponential growth phase”.
